In patent US20070270429A1, “Function Inhibitor of Effector Cell” (priority 2003, published 2007):

Test system: human CD8-positive memory T cell
Assay: Cell growth inhibition test of human CD8-positive memory T cell (anti-CD3 antibody stimulation, BrdU uptake)
Type: cell-based
Conditions: 48 hours
Protocol: A heparinized blood sample was collected from a human, healthy volunteer, and peripheral blood mononuclear cell (PBMC) was isolated by a density gradient centrifugation. Specifically, a blood sample (33 ml) 2-fold diluted with physiological saline was overlaid on a medium for hemocyte separation use (10 ml) having a specific gravity of 1.077±0.001 g/ml contained in a centrifugation tube (LymphoPrep tube (Nycomed Pharma)) and centrifuged (3000×g, 10 minutes) at room temperature. The layer containing PBMC was recovered and washed twice with PBS to isolate PBMC.
CD8-positive T cell was isolated from PBMC by a negative selection method using Human T Cell CD8 Subset Column Kit (R & D Systems, Inc). Specifically, the cells to be removed such as B cell, CD4-positive T cell, and monocyte were labeled with antibodies by adding an antibody cocktail (1 ml) (attached to the kit) to PBMC (up to 2×10^8 cells) and incubating at room temperature for 15 minutes. The cells were washed twice with a column buffer (10 ml) (attached to the kit) and suspended in said column buffer (2 ml). The cell suspension was added to Human T Cell Subset Enrichment Column (attached to the kit) which had been equilibrated in advance using the column buffer (10 ml). By eluting with the column buffer (10 ml) after incubation at room temperature for 10 minutes, the CD8-positive T cell was obtained.
CD8-positive naive T cell and CD8-positive memory T cell were obtained by fractionating the CD8-positive T cell obtained by the above-described method using VarioMACS (Miltenyl Biotec). Specifically, a marker of naive T cell, CD45RA antigen, was labeled with antibody magnetic beads by adding 20 μl of CD45RA MicroBeads (Miltenyl Biotec) to 1×10^7 cells of the CD8-positive T cell, mixing them and incubating at 6 to 12° C. for 15 minutes. The cells were washed once with MACS buffer (PBS containing 2 mM EDTA and 0.5% bovine serum albumin (BSA)) (20 ml) (attached to the kit) and re-suspended in MACS buffer (0.5 ml). The cell suspension was added to an MS column (Miltenyl Biotec) which had been set to VarioMACS and equilibrated with MACS buffer (0.5 ml) in advance, and further washed with MACS buffer (0.5 ml×3 times). This washing solutions were recovered and used in the following test as the CD45RA-negative cell, namely CD8-positive memory T cell. Also, since the CD45RA-positive cell can be recovered by taking off the MS column from VarioMACS and eluting it with MACS buffer (1.5 ml), this was used in the following test as the CD8-positive naive T cell.
The cells fractionated by the method described in the above-described (2-1) were inoculated into a 96 well plate coated with an anti-human CD3 antibody, at a cell density of 2×10^5 cells/200 μl/well. The anti-human CD3 antibody-coated 96 well plate used herein was prepared by coating it with an anti-human CD3 antibody OKT-3 (0.1 μg/ml) overnight at 4° C. The cells were cultured for 48 hours in a CO2 incubator (5% CO2, humidity 95%) kept at 37° C. The cell growth was measured using Cell Proliferation ELISA, BrdU (Colorimetric) (Roche), using uptake of 5-bromo-2-deoxyuridine (BrdU) as the index. The operation method is shown below.
After treating the cells with BrdU for a predetermined period of time, the plate was centrifuged (300×g, 10 minutes), and then turned upside down and lightly shaken to remove the labeled medium. The plate was dried (for about 15 minutes) using a hair dryer. A cell fixing and DNA denaturing solution (200 μl, attached to the kit) was added to each well and left alone for 30 minutes. After removing the cell fixing and DNA denaturing solution and further removing water, a peroxidase-labeled anti-BrdU antibody (anti-BrdU-POD reaction solution) (100 μl) (attached to the kit) was added thereto and left alone at room temperature for 90 minutes. […]

SMILES	inhibition ratio of cell growth (0.01 μM) [%]	inhibition ratio of cell growth (0.1 μM) [%]	inhibition ratio of cell growth (1 μM) [%]	inhibition ratio of cell growth (10 μM) [%]
CCCCN1C(=O)[C@@H]([C@H](O)C2CCCCC2)NC(=O)C12CCN(Cc1ccc(Oc3ccc(C(=O)O)cc3OCC)cc1)CC2.Cl [Compound (c), 4-[4-({(3R)-1-butyl-3-[(R)-cyclohexyl(hydroxy)methyl]-2,5-dioxo-1,4,9-triazaspiro[5.5]undec-9-yl}methyl)phenoxy]-3-ethoxybenzoic acid hydrochloride]	9.2	13.4	18.8	39.6
CCCCN1C(=O)[C@@H]([C@H](O)C2CCCCC2)NC(=O)C12CCN(Cc1ccc(Cc3ccc(C(=O)O)cc3OC)cc1)CC2 [Compound (b), 4-[4-({(3R)-1-butyl-3-[(R)-cyclohexyl(hydroxy)methyl]-2,5-dioxo-1,4,9-triazaspiro[5.5]undec-9-yl}methyl)benzyl]-3-methoxybenzoic acid]	−10.6	5.6	18.3	53.6
